Target: T1, porcine pancreatic α-amylase (Sus scrofa, UniProt P00690)
T1 construct: purchased Megazyme, Inc
T1 sequence (P00690 16-511): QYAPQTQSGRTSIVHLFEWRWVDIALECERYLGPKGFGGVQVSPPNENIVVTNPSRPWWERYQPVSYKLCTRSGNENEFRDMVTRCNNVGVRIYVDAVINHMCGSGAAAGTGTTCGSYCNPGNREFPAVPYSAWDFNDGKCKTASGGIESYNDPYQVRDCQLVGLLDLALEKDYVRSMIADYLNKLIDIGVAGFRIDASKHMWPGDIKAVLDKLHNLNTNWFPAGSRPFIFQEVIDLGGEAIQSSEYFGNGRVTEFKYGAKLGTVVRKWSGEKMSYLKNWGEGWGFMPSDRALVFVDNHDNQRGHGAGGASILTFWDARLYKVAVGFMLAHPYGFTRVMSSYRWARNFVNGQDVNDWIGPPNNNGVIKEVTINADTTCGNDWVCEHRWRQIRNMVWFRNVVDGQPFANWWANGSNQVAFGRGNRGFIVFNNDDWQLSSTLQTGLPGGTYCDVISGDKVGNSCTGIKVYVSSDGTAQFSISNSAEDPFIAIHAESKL
Test: colorimetric starch-iodine assay of amylase-mediated starch hydrolysis
Type: biochemical
Conditions: read-out: Fraction Inhibited (starch-iodine assay)
Method: The effectiveness of GMα (panel A) and GMβ (panel) to inhibit starch hydrolysis (1 mg/ml) mediated by porcine pancreatic α-amylase (1 μM) is shown as a function of the concentration of GMα and GMβ. The Fraction of Reaction Inhibited was calculated using U/ml values determined from the iodine-starch assay as described by (ref), with U/ml=(As62 control−As62 sample)/(As62 starch×20 min×0.1 ml reaction volume), a value that can be interpreted as mg of starch hydrolyzed per minute. The Fraction of “Unfolded” Starch was calculated in the absence of enzyme as A562 taken in the presence of GMα (panel C) and GMβ (panel D) divided by A562 taken in the absence of the GM. General solution conditions are 20 mM potassium phosphate, pH 7, 30° C.;
A standard curve was constructed using 100 μL of 6 concentrations (0-1.0 mg/ml) and 100 μL of soluble starch. A total of 100 μL of 1 mg/ml of soluble starch+/−varying concentrations of GMs were incubated for 20 minutes at 30° C.+/−5 μL enzyme, for a total concentration of 1 μM PPA/well, and the absorbance read at 520 nm.

C[C@H]1O[C@H](O[C@H]2[C@H](O)[C@@H](O)[C@@H](O[C@H]3[C@H](O)[C@@H](O)C(O)O[C@@H]3CO)O[C@@H]2CO)[C@H](O)[C@@H](O)[C@@H]1N[C@H]1C=C(CO)[C@@H](O)[C@H](O)[C@H]1O (stereo partly shown) [Acarbose, acarbose]
inhibition at 400 µM: 79%

Reference: US20190046558A1, “COMPOSITION AND METHODS OF INHIBITING AMYLASE-MEDIATED HYDROLYSIS OF ALPHA (1 to 4)-LINKED GLUCOSE POLYMERS” (priority 2015, published 2019)
